This is an account of results in article PMC9536293, “Targeting extracellular matrix remodeling sensitizes glioblastoma to ionizing radiation” (Neuro-Oncology Advances, 2022).

In experiment [1] the test system is Glioblastoma (GBM). More on the design: method as in PMID 32478924. Particulars: added to radiotherapy; GBM patients; on average; cited from earlier work.
Experiment [2] deals with 913-GSCs. The experiment can be described thus: Invasion through a Matrigel/HA matrix (XCELLigence). Particulars: shMT1-MMP 913-GSCs; 10 ng/ml. It counts as cell-based, human. The protocol:
XCELLigence.—Invasion was performed as per the manufacturer’s instructions. Briefly, 10^4 913-GSCs and GBM1 cells were plated on top of uncoated or 0.4% Growth Factor Reduced Matrigel/10 µg/ml hyaluronic acid (HA) coated wells (CIM plate 16). HA was used as it is a major component of brain ECM. Cells were left at room temperature for 30 min to settle and then the plates were placed into an xCELLigence RTCA DP instrument (ACEA Bioscience). Measurements were taken every 15 min for 48 h or up to 6 days. Cell Index (CI) curves normalized to initial seeding were recorded. 3D Decellularized Brain matrix: 10^4 913-GSC cells were embedded in a 3D decellularized mouse brain matrix, derived as in,[16],[17] which retains the architecture and major components of brain ECM. Briefly, Nu/nu mouse brains were cut into small pieces and submerged in decellularizing solution [0.1% (v/v) ammonium hydroxide (Sigma) and 1% (v/v) Triton X-100 (Sigma) in distilled water] for 2 days. After washing in distilled water, the derived ECM was digested with pepsin (1 mg/ml; Sigma) in HCl (0.01 N) for 2 days at room temperature until visible ECM particle disappeared. To make hydrogels, the ECM solution was mixed with 10 × PBS, dilute to the desired final concentration (20 mg/ml) with ice-cold distilled water and adjust to pH7 by NaOH (1 M). […] Invadopodia length was measured and quantified with ImageJ.

With `Cn1nnc2c(C(N)=O)ncn2c1=O` [TMZ, temozolomide], in experiment [1], the “increase in survival compared to radiotherapy alone” value is listed as 2.5 months.

B1: recombinant MMP2: Recombinant MMP2 purchased from R&D Systems, used at 10 ng/ml (protein, UniProt P08253 110-660, looked up)
72 kDa type IV collagenase: YNFFPRKPKWDKNQITYRIIGYTPDLDPETVDDAFARAFQVWSDVTPLRFSRIHDGEADIMINFGRWEHGDGYPFDGKDGLLAHAFAPGTGVGGDSHFDDDELWTLGEGQVVRVKYGNADGEYCKFPFLFNGKEYNSCTDTGRSDGFLWCSTTYNFEKDGKYGFCPHEALFTMGGNAEGQPCKFPFRFQGTSYDSCTTEGRTDGYRWCGTTEDYDRDKKYGFCPETAMSTVGGNSEGAPCVFPFTFLGNKYESCTSAGRSDGKMWCATTANYDDDRKWGFCPDQGYSLFLVAAHEFGHAMGLEHSQDPGALMAPIYTYTKNFRLSQDDIKGIQELYGASPDIDLGTGPTPTLGPVTPEICKQDIVFDGIAQIRGEIFFFKDRFIWRTVTPRDKPMGPLLVATFWPELPEKIDAVYEAPQEEKAVFFAGNEYWIYSASTLERGYPKPLTSLGLPPDVQRVDAAFNWSKNKKTYIFAGDKFWRYNEVKKKMDPGFPKLIADAWNAIPDNLDAVVDLQGGGHSYFFKGAYYLKLENQSLKSVKFGSIKSDWLGC
Turning to B1, the “invasion of MT1-MMP depleted cells through Matrigel/HA matrix” value in experiment [2] is given as “restored the cells invasive capacity to the levels of controls”.
